Measured values published in patent US20240091366A1, “NOVEL ACID-SENSITIVE APTAMER TRIPTOLIDE CONJUGATE AND APPLICATIONS” (priority 2022, published 2024).
Several values for one entry are separate records, joined by “and”; a condition that tells them apart may be missing. Equal entries are not always repeated.

Experiments:
[1] = system: lung adenocarcinoma cell line A549; assay: MTT assay, cell proliferation inhibition; assay type: cell-based; conditions: Homo sapiens, 48 h
Excerpt: (§1) Material: aptamer triptolide conjugate (AS1411-TP). Triptolide (TP) was provided by Shanghai Yaji Biotechnology Co. Ltd; aptamer (AS1411) was obtained from Chengdu Pilot Drug Development Co. Ltd; trypsin, thiazolyl blue (MTT) (Biofroxx, Germany); dimethyl sulfoxide (DMSO) (MP Biomedicals, France); fetal bovine serum (FBS) (Newzerum, New Zealand); DMEM medium, RPMI1640 medium, Petri dishes, 96-well plates (Corning, USA); colon cancer cells HCT116, breast cancer cells MDA-MB-231, non-small-cell lung cancer cells A549, pancreatic cancer cells PANC-1, and hepatocellular carcinoma cells HepG2 were purchased from the Shanghai Cell Bank of the Chinese Academy of Sciences and preserved in the laboratory.
(§2) Take the tumor cells HCT116, MDA-MB-231, A549, PANC-1 and HepG2 cell lines from the liquid nitrogen tank, place them in a 37° C. water bath, wait for the frozen cells to melt into cell suspension, centrifuge the cells at 1000 r/min for 3 min, discard the supernatant, add 1 ml of fresh complete medium containing 10% fetal bovine serum and 1% double antibody to mix the cells, then add 5 ml of medium, gently and repeatedly blowing the cells with a pipette gun to make them mix well. Then add 5 ml of medium, blow the cells gently and repeatedly with a pipette gun to mix them well, and finally transfer the cell suspension to a […] and label the cell name, cell number, date of resuscitation and the operator's name, and place it in a cell culture incubator for cultivation. (HCT116, PANC-1 and HepG2 cell lines were cultured in DMEM medium, while MDA-MB-231 cell line and A549 cell line were cultured in RPMI1640 medium).
(§3) Take HCT116, MDA-MB-231, A549, PANC-1, HepG2 cells with good growth status, remove the medium, add 1 ml of sterile PBS to wash, add 1.5 ml of trypsin to digest the cells, about 2 min later the cells become round and fall off, add 1.5 ml of medium to terminate the digestion, transfer it to centrifugal tube, centrifuge at 1000 r/min for 3 min, discard the supernatant, add 1 ml of fresh medium to resuspend, then add fresh medium for 1:3 distribution to other culture dishes, and label the date of transmission and the number of generations. Place in the cell culture incubator for cultivation.
(§4) Take HCT116, MDA-MB-231, A549, PANC-1, HepG2 cells with good growth status, by the same operation as the cell passaging experiment, after cell resuspension, cell counting with hemocyte counting plate, with 2500 cells/well, plant in 96-well plate, after 24 h of cell culture, remove the original medium, add medium containing different concentrations of drugs and continue to cultivate for 48 hours. After 24 h of cell culture, the original medium was removed and the medium containing different concentrations of drugs was added to continue the culture for 48 hours. […] The above steps were repeated three times.

[2] = system: breast cancer cell line MDA-MB-231; assay: MTT assay, cell proliferation inhibition; assay type: cell-based; conditions: 48 h
Excerpt: as §1, §2, §3, §4

[3] = system: hepatocellular carcinoma cell line HepG2; assay: MTT assay, cell proliferation inhibition; assay type: cell-based; conditions: 48 h
Excerpt: as §1, §2, §3, §4

[4] = Body weight during administration, colon cancer model; conditions: mouse, in vivo
Procedure: Female nude mice were reared for 6-7 weeks under standard environment, colon cancer cells HCT116 were suspended in serum-free medium, and each mouse was inoculated with 5*10^6 tumor cells. When the tumor volume reached 50-100 mm^3, the mice were randomly divided into 4 groups, and were injected with aptamer triptolide conjugate, triptolide, and aptamer by tail vein, respectively, 12 mice in each group. A PBS negative control group was set up. […] The drugs were administered once every 2 days for 8 consecutive doses, and the experiment was ended 24 hours after the last dose. At the end of the experiment, the animals were executed by breaking the cervical vertebrae, and the tumors were stripped and weighed to calculate the tumor growth inhibition rate of the drug. The t-test was used to compare the tumor weight, tumor volume, RTV and other indexes of the animals in each group.

For `CC(C)[C@]12O[C@H]1[C@@H]1O[C@]13[C@]1(O[C@H]1C[C@H]1C4=C(CC[C@@]13C)C(=O)OC4)[C@@H]2O` [TP, Triptolide], the inhibition at 0.025 µM ([1]; A549, 48 h, A549, 25.0 nM, samples 1-3, read-out: cell proliferation inhibition rate) was 41.5%, the inhibition at 0.05 µM ([1]; A549, 48 h, A549, 50.0 nM, samples 1-3, read-out: cell proliferation inhibition rate) was 63% and the inhibition at 0.1 µM ([1]; A549, 48 h, A549, 100.0 nM, samples 1-3, read-out: cell proliferation inhibition rate) was 80.1%. The inhibition at 0.2 µM ([1]; A549, 48 h, A549, 200.0 nM, samples 1-3, read-out: cell proliferation inhibition rate) was 99.2%, the IC50 ([1]; lung adenocarcinoma cells A549, MTT) was 0.03023 ± 0.00017 µM and the inhibition at 0.0031 µM ([2]; Homo sapiens, MDA-MB-231, 48 h, MDA-MB-231, 3.1 nM, samples 1-3, read-out: cell proliferation inhibition rate) was 14.6%. It also gave an inhibition at 0.0063 µM ([2]; Homo sapiens, MDA-MB-231, 48 h, MDA-MB-231, 6.3 nM, samples 1-3, read-out: cell proliferation inhibition rate) of 25.7%, an inhibition at 0.0125 µM ([2]; Homo sapiens, MDA-MB-231, 48 h, MDA-MB-231, 12.5 nM, samples 1-3, read-out: cell proliferation inhibition rate) of 31.7% and an inhibition at 0.025 µM ([2]; Homo sapiens, MDA-MB-231, 48 h, MDA-MB-231, 25.0 nM, samples 1-3, read-out: cell proliferation inhibition rate) of 42.1%. The inhibition at 0.05 µM ([2]; Homo sapiens, MDA-MB-231, 48 h, MDA-MB-231, 50.0 nM, samples 1-3, read-out: cell proliferation inhibition rate) was 71.5%, the inhibition at 0.1 µM ([2]; Homo sapiens, MDA-MB-231, 48 h, MDA-MB-231, 100.0 nM, samples 1-3, read-out: cell proliferation inhibition rate) was 83% and the inhibition at 0.2 µM ([2]; Homo sapiens, MDA-MB-231, 48 h, MDA-MB-231, 200.0 nM, samples 1-3, read-out: cell proliferation inhibition rate) was 98.1%. The IC50 ([2]; Homo sapiens, breast cancer cells MDA-MB-231, MTT) was 0.0224 ± 0.00024 µM, the “cell proliferation inhibition rate” value ([2]; MDA-MB-231, 3.1 nM, samples 1-3, 0.0031 µM) was 11.4171 and 14.3285 and the “cell proliferation inhibition rate” value ([2]; MDA-MB-231, 6.3 nM, samples 1-3, 0.0063 µM) was 23.5657 and 26.9811. The “cell proliferation inhibition rate” value ([2]; MDA-MB-231, 12.5 nM, samples 1-3, 0.0125 µM) was 36.7429 and 35.2571, the “cell proliferation inhibition rate” value ([2]; MDA-MB-231, 25.0 nM, samples 1-3, 0.025 µM) was 49.4400 and 45.9563 and the “cell proliferation inhibition rate” value ([2]; MDA-MB-231, 50.0 nM, samples 1-3, 0.05 µM) was 73.2000 and 76.9811. The “cell proliferation inhibition rate” value ([2]; MDA-MB-231, 100.0 nM, samples 1-3, 0.1 µM) was 86.0800 and 88.6718, the “cell proliferation inhibition rate” value ([2]; MDA-MB-231, 200.0 nM, samples 1-3, 0.2 µM) was 94.2971 and 93.2186 and the “cell proliferation inhibition rate” value ([3]; HepG2, 3.1 nM, samples 1-3, 0.0031 µM) was 28.7555 and 29.2302. For the same compound, the “cell proliferation inhibition rate” value ([3]; HepG2, 6.3 nM, samples 1-3, 0.0063 µM) was 39.8542 and 49.5151, the “cell proliferation inhibition rate” value ([3]; HepG2, 12.5 nM, samples 1-3, 0.0125 µM) was 51.8210 and 55.5307 and the “cell proliferation inhibition rate” value ([3]; HepG2, 25.0 nM, samples 1-3, 0.025 µM) was 66.7752 and 69.1489. The “cell proliferation inhibition rate” value ([3]; HepG2, 50.0 nM, samples 1-3, 0.05 µM) was 79.9729 and 77.1075, the “cell proliferation inhibition rate” value ([3]; HepG2, 100.0 nM, samples 1-3, 0.1 µM) was 88.3181 and 85.8901 and the “cell proliferation inhibition rate” value ([3]; HepG2, 200.0 nM, samples 1-3, 0.2 µM) was 99.2815 and 99.0448. It also gave an inhibition at 0.0031 µM ([3]; Homo sapiens, HepG2, 48 h, HepG2, 3.1 nM, samples 1-3, read-out: cell proliferation inhibition rate) of 29%, an inhibition at 0.0063 µM ([3]; Homo sapiens, HepG2, 48 h, HepG2, 6.3 nM, samples 1-3, read-out: cell proliferation inhibition rate) of 39.7% and an inhibition at 0.0125 µM ([3]; Homo sapiens, HepG2, 48 h, HepG2, 12.5 nM, samples 1-3, read-out: cell proliferation inhibition rate) of 48.7%. The inhibition at 0.025 µM ([3]; Homo sapiens, HepG2, 48 h, HepG2, 25.0 nM, samples 1-3, read-out: cell proliferation inhibition rate) was 68%, the inhibition at 0.05 µM ([3]; Homo sapiens, HepG2, 48 h, HepG2, 50.0 nM, samples 1-3, read-out: cell proliferation inhibition rate) was 78.5% and the inhibition at 0.1 µM ([3]; Homo sapiens, HepG2, 48 h, HepG2, 100.0 nM, samples 1-3, read-out: cell proliferation inhibition rate) was 88.2%. The inhibition at 0.2 µM ([3]; Homo sapiens, HepG2, 48 h, HepG2, 200.0 nM, samples 1-3, read-out: cell proliferation inhibition rate) was 95.2%, the IC50 ([3]; Homo sapiens, hepatocellular carcinoma cells HepG2, MTT) was 0.0105 ± 0.00033 µM and the “body weights of mice” value [4] was “basically maintained in the tolerable range of animal toxicity and side-effects”.
